Reference: the kinase profiling compilation of Christmann-Franck et al. (2016)

Key:
Experiment in all cases: radiometric filter-binding kinase assay
CAMKK2 (human) = CAMKK2 (human) (UniProt Q96RR4)
PRKAA1 or PRKAA2 (rat) = conditions: accession and sequence are those of the human protein
PKN2 (human) = PKN2 (human) (UniProt Q16513)
PRKCA (human) = PRKCA (human) (UniProt P17252)
MAPK15 (human) = MAPK15 (human) (UniProt Q8TD08)
[1] = molecular target: STK11 CAB39 STRADA (human) (UniProt Q9Y376+Q7RTN6+Q15831)
STK3 (human) = STK3 (human) (UniProt Q13188)
AURKB (human) = AURKB (human) (UniProt Q96GD4)
NEK2 (human) = NEK2 (human) (UniProt P51955)
IGF1R (human) = IGF1R (human) (UniProt P08069)
PRKACA (human) = PRKACA (human) (UniProt P17612)
GCK (human) = GCK (human) (UniProt Q12851)
MAPK3 (human) = MAPK3 (human) (UniProt P27361)
MKNK2 (human) = MKNK2 (human) (UniProt Q9HBH9)
NTRK1 (human) = NTRK1 (human) (UniProt P04629)
MAP3K5 (human) = MAP3K5 (human) (UniProt Q99683)
CHEK2 (human) = CHEK2 (human) (UniProt O96017)
PHKG1 (human) = PHKG1 (human) (UniProt Q16816)
[2] = tested on: AKT2 (human), P31751 [S474D]
MINK1 (human) = MINK1 (human) (UniProt Q8N4C8)
MAPK1 (human) = MAPK1 (human) (UniProt P28482)
MAPKAPK2 (human) = MAPKAPK2 (human) (UniProt P49137)
CHEK1 (human) = CHEK1 (human) (UniProt O14757)
MAP3K1 (human) = MAP3K1 (human) (UniProt Q13233)
SRC (human) = SRC (human) (UniProt P12931)
IKBKB (human) = IKBKB (human) (UniProt O14920)
EPHB4 (human) = EPHB4 (human) (UniProt P54760)
MAPK10 (human) = MAPK10 (human) (UniProt P53779)
MARK2 (human) = MARK2 (human) (UniProt Q7KZI7)
MKNK1 (human) = MKNK1 (human) (UniProt Q9BUB5)
PIM2 (human) = PIM2 (human) (UniProt Q9P1W9)
MAP2K1 (human) = MAP2K1 (human) (UniProt Q02750)
MAPK9 (human) = MAPK9 (human) (UniProt P45984)
YES1 (human) = YES1 (human) (UniProt P07947)
RPS6KA1 KD1 KD2 (human) = RPS6KA1 KD1 KD2 (human) (UniProt Q15418)

Chain of PIM2 (human) (Q9P1W9 whole entry, looked up): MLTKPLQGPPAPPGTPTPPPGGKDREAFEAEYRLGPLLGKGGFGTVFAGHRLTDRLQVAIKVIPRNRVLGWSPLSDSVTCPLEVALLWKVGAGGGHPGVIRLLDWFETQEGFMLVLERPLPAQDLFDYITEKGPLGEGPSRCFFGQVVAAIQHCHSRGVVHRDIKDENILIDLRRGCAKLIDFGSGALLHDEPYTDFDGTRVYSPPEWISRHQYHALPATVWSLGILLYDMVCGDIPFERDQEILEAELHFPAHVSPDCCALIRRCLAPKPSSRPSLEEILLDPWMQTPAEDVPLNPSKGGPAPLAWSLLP
Chain of CHEK1 (human) (O14757 whole entry, looked up): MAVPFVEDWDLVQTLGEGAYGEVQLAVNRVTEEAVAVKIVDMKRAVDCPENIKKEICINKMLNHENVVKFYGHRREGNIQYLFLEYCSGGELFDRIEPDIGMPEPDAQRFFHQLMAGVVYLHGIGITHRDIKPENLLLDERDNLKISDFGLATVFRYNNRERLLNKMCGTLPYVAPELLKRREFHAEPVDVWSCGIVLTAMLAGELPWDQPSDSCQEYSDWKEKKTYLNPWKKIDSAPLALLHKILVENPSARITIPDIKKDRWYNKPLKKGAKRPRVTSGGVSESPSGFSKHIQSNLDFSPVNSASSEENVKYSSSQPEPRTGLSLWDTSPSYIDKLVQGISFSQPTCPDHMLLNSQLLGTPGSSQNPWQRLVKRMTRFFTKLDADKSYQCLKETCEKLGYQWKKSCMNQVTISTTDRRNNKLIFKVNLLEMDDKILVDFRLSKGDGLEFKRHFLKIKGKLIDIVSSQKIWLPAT
Chain of AKT2 (human), P31751 [S474D] (P31751 whole entry S474D, looked up): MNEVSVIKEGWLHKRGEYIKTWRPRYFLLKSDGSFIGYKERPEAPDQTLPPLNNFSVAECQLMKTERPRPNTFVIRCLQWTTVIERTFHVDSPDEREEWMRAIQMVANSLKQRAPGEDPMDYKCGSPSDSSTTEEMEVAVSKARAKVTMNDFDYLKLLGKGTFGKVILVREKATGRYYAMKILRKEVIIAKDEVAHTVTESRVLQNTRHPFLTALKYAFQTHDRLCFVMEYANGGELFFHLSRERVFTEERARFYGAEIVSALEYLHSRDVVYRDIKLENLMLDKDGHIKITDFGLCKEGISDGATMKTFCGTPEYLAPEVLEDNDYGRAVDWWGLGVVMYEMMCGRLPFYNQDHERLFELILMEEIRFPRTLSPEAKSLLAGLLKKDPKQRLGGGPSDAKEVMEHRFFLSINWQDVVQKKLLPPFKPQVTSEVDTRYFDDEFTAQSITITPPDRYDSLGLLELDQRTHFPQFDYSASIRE
Chain of SRC (human) (P12931 whole entry, looked up): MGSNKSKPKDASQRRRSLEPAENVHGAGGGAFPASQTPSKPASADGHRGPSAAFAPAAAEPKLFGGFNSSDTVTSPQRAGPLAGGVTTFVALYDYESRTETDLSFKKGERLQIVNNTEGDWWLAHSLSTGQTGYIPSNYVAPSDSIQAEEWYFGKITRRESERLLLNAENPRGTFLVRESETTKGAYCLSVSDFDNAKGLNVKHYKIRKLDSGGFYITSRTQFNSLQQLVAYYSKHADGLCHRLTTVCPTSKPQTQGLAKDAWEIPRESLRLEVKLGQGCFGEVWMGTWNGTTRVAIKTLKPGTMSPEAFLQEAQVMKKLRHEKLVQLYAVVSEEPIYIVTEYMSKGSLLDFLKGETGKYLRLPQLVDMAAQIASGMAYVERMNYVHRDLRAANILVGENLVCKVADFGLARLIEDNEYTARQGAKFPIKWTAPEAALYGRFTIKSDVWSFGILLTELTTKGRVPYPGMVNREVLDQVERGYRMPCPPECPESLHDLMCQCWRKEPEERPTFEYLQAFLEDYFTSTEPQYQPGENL
Chain of NEK2 (human) (P51955 whole entry, looked up): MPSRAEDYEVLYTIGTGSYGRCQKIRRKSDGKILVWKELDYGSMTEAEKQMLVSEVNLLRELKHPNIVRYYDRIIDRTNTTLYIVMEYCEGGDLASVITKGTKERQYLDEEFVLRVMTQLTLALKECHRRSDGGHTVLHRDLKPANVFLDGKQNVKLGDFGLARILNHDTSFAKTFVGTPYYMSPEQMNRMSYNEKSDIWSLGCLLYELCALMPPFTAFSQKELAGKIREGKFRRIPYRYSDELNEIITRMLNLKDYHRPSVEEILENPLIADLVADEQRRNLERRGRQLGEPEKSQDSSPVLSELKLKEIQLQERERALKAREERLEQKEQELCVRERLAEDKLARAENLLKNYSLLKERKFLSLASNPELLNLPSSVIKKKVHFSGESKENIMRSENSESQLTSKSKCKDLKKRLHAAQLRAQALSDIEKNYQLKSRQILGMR
Chain of MAP2K1 (human) (Q02750 whole entry, looked up): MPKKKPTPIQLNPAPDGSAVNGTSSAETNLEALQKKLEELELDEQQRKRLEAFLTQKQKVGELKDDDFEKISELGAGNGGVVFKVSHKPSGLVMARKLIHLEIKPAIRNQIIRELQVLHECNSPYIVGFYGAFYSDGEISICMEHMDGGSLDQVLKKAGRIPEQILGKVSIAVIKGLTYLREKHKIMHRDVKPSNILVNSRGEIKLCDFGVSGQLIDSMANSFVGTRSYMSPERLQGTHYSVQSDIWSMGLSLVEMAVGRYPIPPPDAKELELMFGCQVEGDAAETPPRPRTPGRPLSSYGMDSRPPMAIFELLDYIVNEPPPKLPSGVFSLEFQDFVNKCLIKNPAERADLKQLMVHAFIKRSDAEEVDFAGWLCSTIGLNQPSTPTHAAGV
Chain of CAMKK2 (human) (Q96RR4 whole entry, looked up): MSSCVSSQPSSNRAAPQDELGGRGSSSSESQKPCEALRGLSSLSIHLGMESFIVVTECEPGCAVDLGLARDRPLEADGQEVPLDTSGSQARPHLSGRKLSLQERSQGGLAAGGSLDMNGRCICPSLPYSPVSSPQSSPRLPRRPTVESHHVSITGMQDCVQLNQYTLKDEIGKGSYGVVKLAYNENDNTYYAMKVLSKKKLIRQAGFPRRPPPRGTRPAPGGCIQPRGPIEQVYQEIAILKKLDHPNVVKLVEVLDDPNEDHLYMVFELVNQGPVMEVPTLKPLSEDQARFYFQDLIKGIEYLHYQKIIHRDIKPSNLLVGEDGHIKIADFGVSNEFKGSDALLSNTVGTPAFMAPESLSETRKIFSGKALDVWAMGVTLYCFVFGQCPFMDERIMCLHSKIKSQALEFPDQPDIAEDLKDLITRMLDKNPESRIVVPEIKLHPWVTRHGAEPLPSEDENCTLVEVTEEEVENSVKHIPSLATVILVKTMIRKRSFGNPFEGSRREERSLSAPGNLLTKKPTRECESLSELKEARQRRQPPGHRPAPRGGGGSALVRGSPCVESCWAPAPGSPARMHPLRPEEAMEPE
Chain of MAPK10 (human) (P53779 whole entry, looked up): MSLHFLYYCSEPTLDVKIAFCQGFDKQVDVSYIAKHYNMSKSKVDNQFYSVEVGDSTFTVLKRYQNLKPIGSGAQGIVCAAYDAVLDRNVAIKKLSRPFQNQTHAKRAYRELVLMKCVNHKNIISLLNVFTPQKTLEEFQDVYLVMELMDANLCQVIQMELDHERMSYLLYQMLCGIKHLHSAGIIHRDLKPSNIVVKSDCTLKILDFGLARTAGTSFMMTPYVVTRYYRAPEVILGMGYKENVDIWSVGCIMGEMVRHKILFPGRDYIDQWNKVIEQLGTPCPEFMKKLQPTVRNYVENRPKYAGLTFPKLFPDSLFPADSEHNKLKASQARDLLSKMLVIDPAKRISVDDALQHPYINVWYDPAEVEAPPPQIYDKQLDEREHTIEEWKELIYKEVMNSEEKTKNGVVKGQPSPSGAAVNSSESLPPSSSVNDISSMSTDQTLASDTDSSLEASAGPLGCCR
Chain of PHKG1 (human) (Q16816 whole entry, looked up): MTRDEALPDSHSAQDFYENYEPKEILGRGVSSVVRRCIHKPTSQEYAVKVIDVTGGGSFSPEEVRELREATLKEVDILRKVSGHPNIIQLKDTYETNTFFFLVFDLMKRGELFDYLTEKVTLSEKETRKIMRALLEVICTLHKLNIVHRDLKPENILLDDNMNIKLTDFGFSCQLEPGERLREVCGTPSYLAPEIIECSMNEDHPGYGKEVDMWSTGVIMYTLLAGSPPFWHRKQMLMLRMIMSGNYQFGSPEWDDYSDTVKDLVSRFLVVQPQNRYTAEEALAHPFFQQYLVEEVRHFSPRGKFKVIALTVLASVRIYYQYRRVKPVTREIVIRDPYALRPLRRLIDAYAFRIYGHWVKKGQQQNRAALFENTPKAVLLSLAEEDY

N#Cc1c(O)c2c(-c3ccc(-c4ccccc4O)cc3)csc2[nH]c1=O
residual activity (CAMKK2 (human); compound 10.0 µM): 87%
residual activity (CAMKK2 (human); compound 50.0 µM): 48%
residual activity (CAMKK2 (human); compound 100.0 µM): 78%
residual activity (PRKAA1 or PRKAA2 (rat); compound 10.0 µM): 135%
residual activity (PRKAA1 or PRKAA2 (rat); compound 50.0 µM): 67%
residual activity (PRKAA1 or PRKAA2 (rat); compound 100.0 µM): 62%
residual activity (PKN2 (human); compound 10.0 µM): 85%
residual activity (PKN2 (human); compound 50.0 µM): 85%
residual activity (PKN2 (human); compound 100.0 µM): 59%
residual activity (PRKCA (human); compound 10.0 µM): 94%
residual activity (PRKCA (human); compound 50.0 µM): 60%
residual activity (PRKCA (human); compound 100.0 µM): 90%
residual activity (MAPK15 (human); compound 10.0 µM): 81%
residual activity (MAPK15 (human); compound 50.0 µM): 36%
residual activity (MAPK15 (human); compound 100.0 µM): 24%
residual activity ([1]; compound 10.0 µM): 86%
residual activity ([1]; compound 100.0 µM): 65%
residual activity (STK3 (human); compound 10.0 µM): 60%
residual activity (STK3 (human); compound 50.0 µM): 36%
residual activity (STK3 (human); compound 100.0 µM): 20%
residual activity (AURKB (human); compound 10.0 µM): 53%
residual activity (AURKB (human); compound 50.0 µM): 25%
residual activity (AURKB (human); compound 100.0 µM): 22%
residual activity (NEK2 (human); compound 10.0 µM): 73%
residual activity (NEK2 (human); compound 50.0 µM): 52%
residual activity (NEK2 (human); compound 100.0 µM): 19%
residual activity (IGF1R (human); compound 10.0 µM): 94%
residual activity (IGF1R (human); compound 100.0 µM): 65%
residual activity (PRKACA (human); compound 10.0 µM): 89%
residual activity (PRKACA (human); compound 50.0 µM): 41%
residual activity (PRKACA (human); compound 100.0 µM): 95%
residual activity (GCK (human); compound 10.0 µM): 76%
residual activity (GCK (human); compound 100.0 µM): 14%
residual activity (MAPK3 (human); compound 10.0 µM): 83%
residual activity (MAPK3 (human); compound 50.0 µM): 102%
residual activity (MAPK3 (human); compound 100.0 µM): 63%
residual activity (MKNK2 (human); compound 10.0 µM): 102%
residual activity (MKNK2 (human); compound 50.0 µM): 80%
residual activity (MKNK2 (human); compound 100.0 µM): 86%
residual activity (NTRK1 (human); compound 10.0 µM): 69%
residual activity (NTRK1 (human); compound 100.0 µM): 28%
residual activity (MAP3K5 (human); compound 10.0 µM): 140%
residual activity (MAP3K5 (human); compound 100.0 µM): 250%
residual activity (CHEK2 (human); compound 10.0 µM): 79%
residual activity (CHEK2 (human); compound 50.0 µM): 52%
residual activity (CHEK2 (human); compound 100.0 µM): 33%
residual activity (PHKG1 (human); compound 10.0 µM): 96%
residual activity (PHKG1 (human); compound 50.0 µM): 65%
residual activity (PHKG1 (human); compound 100.0 µM): 73%
residual activity ([2]; compound 10.0 µM): 56%
residual activity ([2]; compound 50.0 µM): 37%
residual activity ([2]; compound 100.0 µM): 11%
residual activity (MINK1 (human); compound 10.0 µM): 65%
residual activity (MINK1 (human); compound 100.0 µM): 5%
residual activity (MAPK1 (human); compound 10.0 µM): 103%
residual activity (MAPK1 (human); compound 50.0 µM): 74%
residual activity (MAPK1 (human); compound 100.0 µM): 49%
residual activity (MAPKAPK2 (human); compound 10.0 µM): 77%
residual activity (MAPKAPK2 (human); compound 50.0 µM): 32%
residual activity (MAPKAPK2 (human); compound 100.0 µM): 30%
residual activity (CHEK1 (human); compound 10.0 µM): 69%
residual activity (CHEK1 (human); compound 50.0 µM): 98%
residual activity (CHEK1 (human); compound 100.0 µM): 43%
residual activity (MAP3K1 (human); compound 10.0 µM): 26%
residual activity (MAP3K1 (human); compound 100.0 µM): 7%
residual activity (SRC (human); compound 10.0 µM): 44%
residual activity (SRC (human); compound 50.0 µM): 65%
residual activity (SRC (human); compound 100.0 µM): 10%
residual activity (IKBKB (human); compound 10.0 µM): 86%
residual activity (IKBKB (human); compound 50.0 µM): 60%
residual activity (IKBKB (human); compound 100.0 µM): 39%
residual activity (EPHB4 (human); compound 10.0 µM): 82%
residual activity (EPHB4 (human); compound 100.0 µM): 49%
residual activity (MAPK10 (human); compound 10.0 µM): 75%
residual activity (MAPK10 (human); compound 50.0 µM): 70%
residual activity (MAPK10 (human); compound 100.0 µM): 62%
residual activity (MARK2 (human); compound 10.0 µM): 64%
residual activity (MARK2 (human); compound 100.0 µM): 49%
residual activity (MKNK1 (human); compound 10.0 µM): 104%
residual activity (MKNK1 (human); compound 50.0 µM): 66%
residual activity (MKNK1 (human); compound 100.0 µM): 93%
residual activity (PIM2 (human); compound 10.0 µM): 71%
residual activity (PIM2 (human); compound 50.0 µM): 17%
residual activity (PIM2 (human); compound 100.0 µM): 18%
residual activity (MAP2K1 (human); compound 10.0 µM): 79%
residual activity (MAP2K1 (human); compound 50.0 µM): 27%
residual activity (MAP2K1 (human); compound 100.0 µM): 29%
residual activity (MAPK9 (human); compound 10.0 µM): 94%
residual activity (MAPK9 (human); compound 50.0 µM): 89%
residual activity (MAPK9 (human); compound 100.0 µM): 88%
residual activity (YES1 (human); compound 10.0 µM): 96%
residual activity (YES1 (human); compound 50.0 µM): 13%
residual activity (YES1 (human); compound 100.0 µM): 16%
residual activity (RPS6KA1 KD1 KD2 (human); compound 10.0 µM): 80%
residual activity (RPS6KA1 KD1 KD2 (human); compound 50.0 µM): 9%
residual activity (RPS6KA1 KD1 KD2 (human); compound 100.0 µM): 12%
